# According to paper PMC8185074, “Anchor extension: a structure-guided approach to design cyclic peptides targeting enzyme active sites” (Nature Communications, 2021):
# “Also recorded” adds a separate entry of the source.
# Tests used:
# Type in all cases: biochemical
# [1] = molecular target: T1, HDAC4 (Homo sapiens, UniProt P56524); test: HDAC4 inhibition/binding test (BPS Biosciences HDAC fluorogenic assay kit)
# T1 construct: purchased BPS Biosciences
# [2] = molecular target: T2, HDAC11 (Homo sapiens, UniProt Q96DB2); test: HDAC11 profiling of SHA anchor
# T2 sequence (Q96DB2 1-347): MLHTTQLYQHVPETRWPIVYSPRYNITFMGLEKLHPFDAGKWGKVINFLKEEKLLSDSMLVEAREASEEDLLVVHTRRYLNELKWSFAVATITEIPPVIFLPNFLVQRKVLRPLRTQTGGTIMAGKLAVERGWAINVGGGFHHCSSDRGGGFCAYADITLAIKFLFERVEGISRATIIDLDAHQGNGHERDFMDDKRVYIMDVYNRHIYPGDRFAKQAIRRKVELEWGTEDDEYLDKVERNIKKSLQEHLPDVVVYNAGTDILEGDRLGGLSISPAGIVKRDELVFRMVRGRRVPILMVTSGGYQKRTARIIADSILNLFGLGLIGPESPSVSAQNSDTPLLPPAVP
# [3] = molecular target: T3, HDAC7 (Homo sapiens, UniProt Q8WUI4); test: HDAC7 profiling of SHA anchor and early peptides
# T3 sequence (Q8WUI4 1-952): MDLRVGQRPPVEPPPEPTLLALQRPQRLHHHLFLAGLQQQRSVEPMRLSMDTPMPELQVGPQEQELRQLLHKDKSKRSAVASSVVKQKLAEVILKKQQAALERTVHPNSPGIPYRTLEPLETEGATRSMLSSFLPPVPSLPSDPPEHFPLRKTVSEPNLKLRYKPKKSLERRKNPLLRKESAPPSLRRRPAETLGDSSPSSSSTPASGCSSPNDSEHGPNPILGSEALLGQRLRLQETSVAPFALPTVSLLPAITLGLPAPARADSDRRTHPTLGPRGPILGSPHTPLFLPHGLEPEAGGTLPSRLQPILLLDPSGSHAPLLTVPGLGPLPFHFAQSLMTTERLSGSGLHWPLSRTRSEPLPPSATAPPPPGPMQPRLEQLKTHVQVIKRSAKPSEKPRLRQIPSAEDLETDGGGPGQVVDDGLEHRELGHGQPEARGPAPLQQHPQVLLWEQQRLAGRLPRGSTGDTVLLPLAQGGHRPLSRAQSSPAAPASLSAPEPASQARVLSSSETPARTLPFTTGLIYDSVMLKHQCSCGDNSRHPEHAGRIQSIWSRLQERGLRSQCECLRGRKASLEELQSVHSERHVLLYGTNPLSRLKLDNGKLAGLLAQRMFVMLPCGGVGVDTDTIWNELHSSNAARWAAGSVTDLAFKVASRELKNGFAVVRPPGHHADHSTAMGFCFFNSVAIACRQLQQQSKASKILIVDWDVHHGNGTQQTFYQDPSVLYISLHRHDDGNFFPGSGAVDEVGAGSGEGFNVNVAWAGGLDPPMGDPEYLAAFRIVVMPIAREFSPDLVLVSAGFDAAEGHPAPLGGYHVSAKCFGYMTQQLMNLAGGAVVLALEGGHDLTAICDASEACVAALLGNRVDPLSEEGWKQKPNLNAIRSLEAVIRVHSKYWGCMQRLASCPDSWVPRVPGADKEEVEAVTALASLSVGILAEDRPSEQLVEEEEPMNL
# [4] = molecular target: T4, HDAC10 (Homo sapiens, UniProt Q969S8); test: HDAC10 profiling of SHA anchor
# T4 sequence (Q969S8 1-669): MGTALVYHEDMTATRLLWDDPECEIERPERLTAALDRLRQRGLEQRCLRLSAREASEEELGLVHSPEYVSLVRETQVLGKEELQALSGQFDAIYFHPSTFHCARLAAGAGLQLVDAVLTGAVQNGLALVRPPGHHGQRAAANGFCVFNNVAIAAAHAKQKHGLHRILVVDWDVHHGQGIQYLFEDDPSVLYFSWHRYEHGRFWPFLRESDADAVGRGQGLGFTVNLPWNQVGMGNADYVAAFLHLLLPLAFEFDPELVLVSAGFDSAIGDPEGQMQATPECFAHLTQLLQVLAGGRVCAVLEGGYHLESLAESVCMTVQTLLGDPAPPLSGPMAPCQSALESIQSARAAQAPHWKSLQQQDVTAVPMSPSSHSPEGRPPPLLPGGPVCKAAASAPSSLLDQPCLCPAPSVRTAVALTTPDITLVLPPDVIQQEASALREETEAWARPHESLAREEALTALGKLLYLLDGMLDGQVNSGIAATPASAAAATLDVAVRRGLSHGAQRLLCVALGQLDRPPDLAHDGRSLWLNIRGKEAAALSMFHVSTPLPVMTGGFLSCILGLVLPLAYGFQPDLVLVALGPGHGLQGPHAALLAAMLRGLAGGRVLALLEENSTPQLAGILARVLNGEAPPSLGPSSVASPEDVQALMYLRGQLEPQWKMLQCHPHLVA
# From the text: Supplement 41467_2021_23609_MOESM7_ESM.zip/HDACActivity_RawData.xlsx, sheet "SHA" | column: HDAC10
# [5] = molecular target: HDAC5 (Homo sapiens, UniProt Q9UQL6); test: HDAC5 profiling of SHA anchor and early peptides
# Chain of HDAC5 (Q9UQL6 whole entry): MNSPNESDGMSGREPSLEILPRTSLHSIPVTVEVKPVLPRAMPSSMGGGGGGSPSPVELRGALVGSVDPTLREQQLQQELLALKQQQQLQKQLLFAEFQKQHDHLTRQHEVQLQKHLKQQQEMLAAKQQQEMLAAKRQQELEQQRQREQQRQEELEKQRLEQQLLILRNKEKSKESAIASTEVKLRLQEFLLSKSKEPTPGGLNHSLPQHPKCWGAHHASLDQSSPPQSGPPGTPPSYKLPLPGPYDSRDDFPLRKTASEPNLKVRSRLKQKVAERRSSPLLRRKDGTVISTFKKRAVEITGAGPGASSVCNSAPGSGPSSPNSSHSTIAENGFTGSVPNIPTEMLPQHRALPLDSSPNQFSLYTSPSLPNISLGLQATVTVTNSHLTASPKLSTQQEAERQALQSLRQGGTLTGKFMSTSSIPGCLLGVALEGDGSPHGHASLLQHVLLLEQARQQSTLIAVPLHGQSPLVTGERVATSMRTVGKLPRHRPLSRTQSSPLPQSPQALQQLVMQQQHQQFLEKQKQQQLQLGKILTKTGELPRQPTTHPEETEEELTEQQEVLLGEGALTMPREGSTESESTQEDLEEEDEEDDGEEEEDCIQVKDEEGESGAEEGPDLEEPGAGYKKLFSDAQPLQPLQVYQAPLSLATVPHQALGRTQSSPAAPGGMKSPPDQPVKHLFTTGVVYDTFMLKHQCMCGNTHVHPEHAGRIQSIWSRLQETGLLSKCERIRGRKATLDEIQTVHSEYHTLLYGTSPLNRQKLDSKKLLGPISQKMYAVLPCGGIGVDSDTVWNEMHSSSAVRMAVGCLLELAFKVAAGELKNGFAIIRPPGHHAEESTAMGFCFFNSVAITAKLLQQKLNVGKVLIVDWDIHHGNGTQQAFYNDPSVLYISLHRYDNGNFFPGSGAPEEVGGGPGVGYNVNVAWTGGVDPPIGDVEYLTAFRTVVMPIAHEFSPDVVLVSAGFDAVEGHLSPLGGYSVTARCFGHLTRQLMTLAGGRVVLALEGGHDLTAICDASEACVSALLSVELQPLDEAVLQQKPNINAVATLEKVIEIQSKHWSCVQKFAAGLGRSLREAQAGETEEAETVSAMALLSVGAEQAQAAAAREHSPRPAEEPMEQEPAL
# T1 sequence (P56524 whole entry): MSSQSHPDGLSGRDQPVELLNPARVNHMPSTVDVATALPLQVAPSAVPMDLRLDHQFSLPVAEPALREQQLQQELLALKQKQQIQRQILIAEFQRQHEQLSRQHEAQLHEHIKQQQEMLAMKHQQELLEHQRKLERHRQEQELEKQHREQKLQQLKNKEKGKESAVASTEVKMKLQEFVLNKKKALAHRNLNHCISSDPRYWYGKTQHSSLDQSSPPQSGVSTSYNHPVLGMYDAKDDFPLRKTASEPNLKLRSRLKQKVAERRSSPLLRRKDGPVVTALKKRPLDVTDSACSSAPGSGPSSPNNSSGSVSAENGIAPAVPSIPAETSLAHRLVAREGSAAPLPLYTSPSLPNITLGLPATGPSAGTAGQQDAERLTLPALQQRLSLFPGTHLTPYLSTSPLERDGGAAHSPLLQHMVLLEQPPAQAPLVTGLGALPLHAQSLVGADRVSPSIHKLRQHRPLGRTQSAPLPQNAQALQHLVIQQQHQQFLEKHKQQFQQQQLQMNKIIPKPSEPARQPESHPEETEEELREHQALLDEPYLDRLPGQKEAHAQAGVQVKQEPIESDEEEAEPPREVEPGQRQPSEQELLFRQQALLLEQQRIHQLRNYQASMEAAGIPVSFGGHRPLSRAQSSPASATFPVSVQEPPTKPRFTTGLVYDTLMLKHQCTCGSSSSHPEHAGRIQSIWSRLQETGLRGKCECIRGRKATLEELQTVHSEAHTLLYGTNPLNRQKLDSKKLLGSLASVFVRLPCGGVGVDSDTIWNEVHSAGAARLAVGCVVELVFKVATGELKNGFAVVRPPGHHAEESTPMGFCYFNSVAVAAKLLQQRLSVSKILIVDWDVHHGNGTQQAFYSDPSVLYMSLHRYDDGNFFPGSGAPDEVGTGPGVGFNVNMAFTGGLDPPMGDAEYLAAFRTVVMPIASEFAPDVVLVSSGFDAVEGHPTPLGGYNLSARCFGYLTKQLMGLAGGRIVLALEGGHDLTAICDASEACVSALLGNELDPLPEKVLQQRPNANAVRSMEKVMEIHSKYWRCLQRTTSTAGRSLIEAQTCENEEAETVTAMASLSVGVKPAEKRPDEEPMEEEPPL
compound,measurement,setting,value
"N[C@@H](CCCCCS)C(=O)O [SHA, 2S-2-amino-7-sulfanylheptanoic acid]",binding to HDAC4,[1],not detected binding
same,HDAC4 raw activity signal,[1]; Conc. 1.00E-05 M,1818034
same,HDAC4 raw activity signal,[1]; Conc. 1.11E-06 M,1589038
same,HDAC4 raw activity signal,[1]; Conc. 1.23E-07 M,1682923
same,HDAC4 raw activity signal,[1]; Conc. 1.37E-08 M,1569641
same,HDAC4 raw activity signal,[1]; Conc. 1.52E-09 M,1604062
same,HDAC4 raw activity signal,[1]; Conc. 3.33E-06 M,1651123
same,HDAC4 raw activity signal,[1]; Conc. 3.70E-07 M,1661788
same,HDAC4 raw activity signal,[1]; Conc. 4.12E-08 M,1863011
same,HDAC4 raw activity signal,[1]; Conc. 4.57E-09 M,1554862
same,HDAC4 raw activity signal,[1]; Conc. 5.08E-10 M,1555289
same,binding to HDAC11,[2],no binding
same,HDAC11 raw activity signal,[2]; Conc. 1.00E-05 M,857709
same,HDAC11 raw activity signal,[2]; Conc. 1.11E-06 M,1073570
same,HDAC11 raw activity signal,[2]; Conc. 1.23E-07 M,1094662
same,HDAC11 raw activity signal,[2]; Conc. 1.37E-08 M,1209318
same,HDAC11 raw activity signal,[2]; Conc. 1.52E-09 M,1051037
same,HDAC11 raw activity signal,[2]; Conc. 3.33E-06 M,847001
same,HDAC11 raw activity signal,[2]; Conc. 3.70E-07 M,1077158
same,HDAC11 raw activity signal,[2]; Conc. 4.12E-08 M,1064044
same,HDAC11 raw activity signal,[2]; Conc. 4.57E-09 M,1134026
same,HDAC11 raw activity signal,[2]; Conc. 5.08E-10 M,1061165
same,binding to HDAC7,[3],not detected binding; also recorded: no binding
same,HDAC7 raw activity signal,[3]; Conc. 1.00E-05 M,490633
same,HDAC7 raw activity signal,[3]; Conc. 1.11E-06 M,609377
same,HDAC7 raw activity signal,[3]; Conc. 1.23E-07 M,577915
same,HDAC7 raw activity signal,[3]; Conc. 1.37E-08 M,439997
same,HDAC7 raw activity signal,[3]; Conc. 1.52E-09 M,431089
same,HDAC7 raw activity signal,[3]; Conc. 3.33E-06 M,551905
same,HDAC7 raw activity signal,[3]; Conc. 3.70E-07 M,580293
same,HDAC7 raw activity signal,[3]; Conc. 4.12E-08 M,536345
same,HDAC7 raw activity signal,[3]; Conc. 4.57E-09 M,413084
same,HDAC7 raw activity signal,[3]; Conc. 5.08E-10 M,366480
same,HDAC10 raw activity signal,[4]; Conc. 1.00E-05 M,78535
same,HDAC10 raw activity signal,[4]; Conc. 1.11E-06 M,200617
same,HDAC10 raw activity signal,[4]; Conc. 1.23E-07 M,227566
same,HDAC10 raw activity signal,[4]; Conc. 1.37E-08 M,231393
same,HDAC10 raw activity signal,[4]; Conc. 1.52E-09 M,230961
same,HDAC10 raw activity signal,[4]; Conc. 3.33E-06 M,158362
same,HDAC10 raw activity signal,[4]; Conc. 3.70E-07 M,217828
same,HDAC10 raw activity signal,[4]; Conc. 4.12E-08 M,237632
same,HDAC10 raw activity signal,[4]; Conc. 4.57E-09 M,278288
same,HDAC10 raw activity signal,[4]; Conc. 5.08E-10 M,236379
same,binding to HDAC5,[5],not detected binding; also recorded: no binding
same,HDAC5 raw activity signal,[5]; Conc. 1.00E-05 M,673421
same,HDAC5 raw activity signal,[5]; Conc. 1.11E-06 M,815210
same,HDAC5 raw activity signal,[5]; Conc. 1.23E-07 M,790981
same,HDAC5 raw activity signal,[5]; Conc. 1.37E-08 M,671078
same,HDAC5 raw activity signal,[5]; Conc. 1.52E-09 M,600695
same,HDAC5 raw activity signal,[5]; Conc. 3.33E-06 M,650638
same,HDAC5 raw activity signal,[5]; Conc. 3.70E-07 M,757112
same,HDAC5 raw activity signal,[5]; Conc. 4.12E-08 M,716396
same,HDAC5 raw activity signal,[5]; Conc. 4.57E-09 M,610467
same,HDAC5 raw activity signal,[5]; Conc. 5.08E-10 M,252249
